Consider three compounds from publication doi:10.1101/2022.03.30.486313v1 (biorxiv, 2022).

The target in assay [1] is T1, SARS-CoV-2 PLpro (Severe acute respiratory syndrome coronavirus 2, UniProt P0DTD1). The assay is described as follows: biochemical.
The target in assay [2] is T1, SARS-CoV-2 PLpro. Nature of the assay: biochemical. This is another data set of the same source.

Consider `CN(C)CCSSCCN(C)C` [DMGA, bis[2-(N,N-dimethylamino)ethyl] disulfide], for which the 50% inhibitory concentration (IC50) against SARS-CoV-2 PLpro [1] stood at 9.4 µM.

`O=S(=O)(O)CCSSCCS(=O)(=O)O` [Dimesna] registered an EC50 on SARS-CoV-2 PLpro [2] of 1050 µM.

Regarding `Cc1ncc(CSSCc2cnc(C)c(O)c2CO)c(CO)c1O` [Pyritinol], it took 18 µM to reach a half-maximal effect at SARS-CoV-2 PLpro [2] (EC50).

The term IC50 denotes the concentration that inhibits the measured activity by half. By EC50 is commonly meant the concentration that produces a half-maximal response. Lower therefore signals an effect from little substance.
